Experimental data reported in US6423855B1, “Cytoprotective compounds” (Virginia Commonwealth University, priority 1996, dated 2002).

Legend:
[1] = target: T1, purified human disc type II, PLA2 (Homo sapiens, UniProt P14555); experiment: inhibition of purified human disc type II PLA2; assay type: biochemical
T1 construct: the purified human disc type II, PLA2; from tissue; host or cells: human vertebral (herniated) disc
Protocol: Both PX-13 and PX-18 inhibit the purified human disc type II, PLA2. PLA2 activity was measured as described in Franson et al., Prostaglandins, Leukotrienes and Essential Fatty Acids, 43:63-70, 1991, which is herein incorporated by reference in its entirety.

[2] = peroxidation (malondialdehyde formation) of homogenized rat bowel
Protocol: These drugs were also tested for their ability to enhance the preservation of tissues stored for subsequent transplantation. The small bowel was removed from rats, washed free of luminal contents and the tissue stored in University of Wisconsin (UW) preservative media ±40 uM PX-13 or mepacrine for 48 hrs. The graft was then transplanted into rats with or without intravenous (IV) infusion of 20 mg/kg PX-13 or mepacrine at the time of transplantation. Upon transplantation, the bowel is immediately injured as evidenced by tissue darkening within two minutes. […] Both PX-13 and mepacrine inhibit the peroxidation (malondialdehyde formation) of homogenized rat bowel, an indication that the membrane-stabilizing, PLA2-inhibitors, also have anti-oxidant activity.

[3] = tested on: reflex sympathetic dystrophy (RSD); experiment: topical cream in patients with reflex sympathetic dystrophy; assay type: in vivo, human
Protocol: A patient presents with severe RSD characterized by persistent pain and limitation of movement at the wrist joint. […] Another patient presents with a two year history of RSD in the knee joint. This patient previously received arthroscopic evaluations. This patient also had limited range of motion and became addicted to narcotics in an attempt to reduce pain. […] The reduction in pain is immediate and the increased range of motion occurs within 10-20 minutes. This patient, who had been unemployed for an extended period, eliminated intake of narcotics and returned to work. A third patient presented with RSD of the foot and ankle. This patient had no eversion or inversion of the foot.

[4] = tested on: ultraviolet-induced erythema; experiment: protection against ultraviolet-induced erythema; assay type: in vivo, hairless albino mice; settings: 1 = Best, 4 = Worst
Protocol: The human skin tests were conducted on three volunteer female subjects, ages 29-32; a cream base with no added active was included as a control, while the untreated skin served as an additional basis for evaluation. Sunburn tests were performed on a total of 30 hairless albino mice.
5.Protection against ultraviolet-induced ervthema. The protection against ultraviolet-induced erythema (i.e., the burn and irritation produced after exposure to ultraviolet radiation), was measured by first irradiating 12 mice with destructive 3130 angstrom (Å) rays, applying the creams, and then evaluating the skin cells for erythema.

[5] = tested on: rat dorsal root ganglion cells; experiment: cultured rat dorsal root ganglion cells exposed to human disc PLA2; assay type: cell-based
Protocol: Primary cultures of rat dorsal root ganglion cells were used. Cells were washed 3-times with media to remove serum. Then, PX-13 (20 uM) in HEPES buffer or a buffer control was applied to the cells. After 10 min of incubation, purified human disc PLA2 (activity 1 umol/min) was added and the cells were incubated for an additional 60-90 min. Cells were then observed, fixed, and photographed 1.5 hrs after addition of PLA2.

[6] = tested on: rat dorsal root ganglion cells; experiment: cultured rat dorsal root ganglion cells exposed to snake venom PLA2; assay type: cell-based; settings: 1-3 umols/min/mg for 60 min
[7] = tested on: purified human disc PLA2 induced paw edema; experiment: human disc PLA2-induced mouse paw edema; assay type: in vivo
Protocol: Edema was induced by injection of 1 ug of purified human disc PLA2 into the mouse footpad. PX-13 was administered either by gavage or intraperitoneally (IP) 60 min prior to enzyme challenge. Forty-five min after enzyme injection, the animals were sacrificed and the control and injected paws were removed and weighed to assess edema.

human blood cells = experiment: preservation of whole blood (LDH and hemoglobin release); assay type: cell-based
Protocol: The effect of PX-13 and mepacrine on whole blood cell viability were tested as a function of time of storage.
Heparinized human blood was centrifuged at 400×g and the resulting plasma was removed and replaced with an equal volume of Dulbecco's medium. The resuspended cells were then incubated at 37° C. for 0-72 hrs. in a shaking water bath. At the indicated times, a 0.8 ml aliquot was removed and centrifuged at 400×g to sediment cells. Appearance of lactate dehydrogenase (LDH) and hemoglobin in the supernate was indicative of cell injury. PX-13 and mepacrine stabilized cells and decreased the injury as evidenced by diminished levels of LDH and hemoglobin in the supernate. This is expressed as percent protection.

pancreatin = experiment: degradation in vitro by pancreatin; assay type: in vitro ADME; settings: commercial pancreatic enzyme preparation (Sigma)
Text: The compounds of the present invention are not generally hydrolyzed by pancreatic enzymes and are different from glycerol-based compounds in terms of their chemistry and metabolism. […] The resistance of PX-13 and PX-18 to metabolism by pancreatic enzymes supports their stability after oral administration.

[8] = small bowel storage in perfusate solution, tissue weight; set-up: species or system rat; settings: 24 and 48 hours in the perfusate solution
Protocol: These drugs were also tested for their ability to enhance the preservation of tissues stored for subsequent transplantation. […] The graft was then transplanted into rats with or without intravenous (IV) infusion of 20 mg/kg PX-13 or mepacrine at the time of transplantation.

epidermal layer = experiment: transepidermal water loss; assay type: in vivo, human
Protocol: Two PX compounds PX-11 and PX-13 were evaluated in a cream formulation prepared under GMP. The chemicals were formulated into a bland cream and evaluated in the following human or mouse skin tests: (1) occluded patch test for irritation; (2) cell turnover rate; (3) transepidermal water loss; (4) skin moisturization; and (5) reduction in erythema after induced sunburn. The human skin tests were conducted on three volunteer female subjects, ages 29-32; a cream base with no added active was included as a control, while the untreated skin served as an additional basis for evaluation. Sunburn tests were performed on a total of 30 hairless albino mice. 3. Transepidermal water loss. This parameter was measured by affixing a flow cell on the forearm site, applying the cream, waiting 20 minutes, then flushing the volume with nitrogen and noting the moisture content of the effluent gases.

[9] = patient 2, knee, cream combined with sympathetic blockade

T1 sequence (P14555 21-144): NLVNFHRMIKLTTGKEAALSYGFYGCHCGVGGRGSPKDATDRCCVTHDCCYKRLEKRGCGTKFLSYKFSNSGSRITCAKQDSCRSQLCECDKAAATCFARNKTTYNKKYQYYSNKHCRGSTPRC

In the case of `CCCCCCCC/C=C\CCCCCCCC(=O)OCC(COC(=O)CCCCCCC/C=C\CCCCCCCC)(COC(=O)CCCCCCC/C=C\CCCCCCCC)NCCS(=O)(=O)O` [PX-13, 2-[Tris(oleoyloxymethyl)methylamino]-1-ethanesulfonic acid], the IC50 [1] is reported as 2500 nM, the “peroxidation (malondialdehyde formation)” value [2] is reported as “inhibit” and the pain relief ([3]; patient 1, wrist, about 4% in cream of Example 15, topical) is reported as “immediate pain relief”. The “pain and range of motion” value [3, 9] was “decreases the patient's report of pain and provides a full range of motion”, the “time to increased range of motion” value [3, 9] was 10 to 20 min and the “time to full eversion and inversion” value ([3]; patient 3, foot and ankle, about 4% cream) was at most 20 min. For the same molecule, the pain relief ([3]; patient 3, foot and ankle, about 4% in cream vehicle) was “immediate and complete pain relief”, the “Post-Radiation Erythema Ranking Mean” value ([4]; Mean) was 4.7 and the “Post-Radiation Erythema Ranking” value ([4]; Subject 3) was 4. The “cell morphology, compound alone” value ([5]; 20 uM alone) was “indistinguishable from control cultures”, the “cell morphology, compound + human disc PLA2” value ([5]; 20 uM, PLA2 activity 1 umol/min, 60-90 min) was “indistinguishable from control cultures” and the “protection against toxicity of purified snake venom PLA2” value [6] was “protected”. The “Percent Protection” value ([7]; 20 mg/kg gavage, 60 min prior to enzyme, paws weighed 45 min after) was 33%, the “Percent Protection” value ([7]; 40 mg/kg IP) was 48% and the “Percent Protection” value ([7]; 40 mg/kg gavage) was 55%. For the same molecule, the “Percent Protection” value ([7]; 60 mg/kg gavage) was 63%, the “Percent Protection Hemoglobin” value (human blood cells; 20 uM, 48 hr) was 55% and the “Percent Protection LDH” value (human blood cells; 20 uM, 48 hr, 37° C.) was 22%. For the same molecule, the “Percent Protection Hemoglobin” value (human blood cells; 20 uM, 72 hr) was 25%, the “Percent Protection LDH” value (human blood cells; 20 uM, 72 hr) was 15% and the “Percent Protection Hemoglobin” value (human blood cells; 80 uM, 48 hr) was 72%. For the same molecule, the “Percent Protection LDH” value (human blood cells; 80 uM, 48 hr) was 39%, the “Percent Protection Hemoglobin” value (human blood cells; 80 uM, 72 hr) was 54% and the “Percent Protection LDH” value (human blood cells; 80 uM, 72 hr) was 41%. For the same molecule, the “Percent Protection Hemoglobin” value (human blood cells; 160 uM, 48 hr) was 77%, the “Percent Protection LDH” value (human blood cells; 160 uM, 48 hr) was 78% and the “Percent Protection Hemoglobin” value (human blood cells; 160 uM, 72 hr) was 80%. For the same molecule, the “Percent Protection LDH” value (human blood cells; 160 uM, 72 hr) was 72%, the “degradation in vitro by pancreatin” value (pancreatin) was “resistant to degradation” and the “weight of the tissues after storage” value [8] was “reduced weight”. For the same molecule, the “% Change in Transepidermal Water Loss” value (epidermal layer; forearm, 20 minutes after applying cream) was −8.5% and the “effect on water loss from the epidermal layer” value (epidermal layer; in vivo) was “functioned as an occluding moisturizer”.
